Test results taken from patent US20200291086A1, “BIOREVERSABLE PROMOIETIES FOR NITROGEN-CONTAINING AND HYDROXYL-CONTAINING DRUGS” (priority 2013, published 2020).
Numbered stars: 1 amine (or outer) side, 2 acyl side, 3 side chain; on linkers, the order of the positions; unused ones are H or OH. Square brackets hold non-standard residues; d marks the D form. Peptide text beside a SMILES is read from it. * marks the point of attachment. X16 = C[C@H](N)c1nc(SCC(=O)NCCNC(=O)OCC2c3ccccc3-c3ccccc32)cn1[C@@H](C)C(=O)*; X10 = C[C@H](N)c1nnnn1[C@@H](CCCCN[*:1])C(=O)[*:2]; X8 = C[C@@H](C(=O)[*:2])n1nncc1[C@@H](N)CCCCN[*:1]; X3 = NCc1cccn1[C@@H](CCCCN[*:1])C(=O)[*:2]; Fmoc = O=C(OCC1c2ccccc2-c2ccccc21)*; X15 = NCc1cc(S(N)(=O)=O)ccc1C(=O)*; X14 = NCCc1ccccc1C(=O)*

Test system: not listed separately
Assay: Determination of half life in serum: cleavage of promoieties from capped D-amino acid model peptides
Format: in vitro ADME
Conditions: 100% serum, 37° C.; read-out: t 1/2 (h), cleavage of promoiety linked to N terminus of model peptide X-G-dI-dV-dE-dQ-dA-dA (converted)
Protocol: Determination of Half Life in Serum
Promoiety capped model peptides X-G-dI-dV-dE-dQ-dA-dA were used in the assay. D amino acids were used to prevent other enzymatic cleavage of the model peptides. The peptides were dissolved in 100% serum and incubated at 37° C. Samples were collected for analysis at different time points (e.g., 1 h, 2 h, 4 h, 8 h, 12 h, 24 h, 48 h, 72 h, 96 h, and 120 h).
The concentrations of the promoiety capped model peptides and the released parent model peptides were determined by their respective peak areas. The first order dissociation rate constant of a promoiety capped model peptide was determined by plotting the logarithm of [starting promoiety capped model peptide]/[remaining promoiety capped model peptide] at various time intervals. The half life for cleavage of a promoiety capped model peptide was calculated by using the equation and the slope derived from this plot.

CC[C@@H](C)[C@@H](NC(=O)CNC(=O)[C@H](CCCCNC(=O)OCC1c2ccccc2-c2ccccc21)n1cccc1CN)C(=O)N[C@@H](C(=O)N[C@H](CCC(=O)O)C(=O)N[C@H](CCC(N)=O)C(=O)N[C@H](C)C(=O)N[C@H](C)C(=O)O)C(C)C (Fmoc-[X3]G[dI][dV][dE][dQ][dA][dA]-OH) and CC[C@@H](C)[C@@H](NC(=O)CNC(=O)[C@H](CCCCNC(=O)OCC1c2ccccc2-c2ccccc21)n1nnnc1[C@H](C)N)C(=O)N[C@@H](C(=O)N[C@H](CCC(=O)O)C(=O)N[C@H](CCC(N)=O)C(=O)N[C@H](C)C(=O)N[C@H](C)C(=O)O)C(C)C (Fmoc-[X10]G[dI][dV][dE][dQ][dA][dA]-OH) are within 1.5-fold of each other in half-life: 103 h for the first, 91.5 h for the second.

CC[C@@H](C)[C@@H](NC(=O)CNC(=O)[C@H](C)n1nncc1[C@@H](N)CCCCNC(=O)OCC1c2ccccc2-c2ccccc21)C(=O)N[C@@H](C(=O)N[C@H](CCC(=O)O)C(=O)N[C@H](CCC(N)=O)C(=O)N[C@H](C)C(=O)N[C@H](C)C(=O)O)C(C)C (Fmoc-[X8]G[dI][dV][dE][dQ][dA][dA]-OH) and CC[C@@H](C)[C@@H](NC(=O)CNC(=O)[C@H](C)n1cc(SCC(=O)NCCNC(=O)OCC2c3ccccc3-c3ccccc32)nc1[C@H](C)N)C(=O)N[C@@H](C(=O)N[C@H](CCC(=O)O)C(=O)N[C@H](CCC(N)=O)C(=O)N[C@H](C)C(=O)N[C@H](C)C(=O)O)C(C)C (X16-G[dI][dV][dE][dQ][dA][dA]-OH) are within 1.5-fold of each other in half-life: 96.4 h for the first, 72.3 h for the second.

Going from CC[C@@H](C)[C@@H](NC(=O)CNC(=O)c1ccccc1CCN)C(=O)N[C@@H](C(=O)N[C@H](CCC(=O)O)C(=O)N[C@H](CCC(N)=O)C(=O)N[C@H](C)C(=O)N[C@H](C)C(=O)O)C(C)C (X14-G[dI][dV][dE][dQ][dA][dA]-OH) to CC[C@@H](C)[C@@H](NC(=O)CNC(=O)c1ccc(S(N)(=O)=O)cc1CN)C(=O)N[C@@H](C(=O)N[C@H](CCC(=O)O)C(=O)N[C@H](CCC(N)=O)C(=O)N[C@H](C)C(=O)N[C@H](C)C(=O)O)C(C)C (X15-G[dI][dV][dE][dQ][dA][dA]-OH), the half-life falls from 106 h to 39.9 h (2.7-fold).

Target: insulin receptor (Homo sapiens, UniProt P06213)
Assay: not given
Conditions: cited from earlier work

insulin receptor, sequence (P06213 28-758 limits assumed, species assumed): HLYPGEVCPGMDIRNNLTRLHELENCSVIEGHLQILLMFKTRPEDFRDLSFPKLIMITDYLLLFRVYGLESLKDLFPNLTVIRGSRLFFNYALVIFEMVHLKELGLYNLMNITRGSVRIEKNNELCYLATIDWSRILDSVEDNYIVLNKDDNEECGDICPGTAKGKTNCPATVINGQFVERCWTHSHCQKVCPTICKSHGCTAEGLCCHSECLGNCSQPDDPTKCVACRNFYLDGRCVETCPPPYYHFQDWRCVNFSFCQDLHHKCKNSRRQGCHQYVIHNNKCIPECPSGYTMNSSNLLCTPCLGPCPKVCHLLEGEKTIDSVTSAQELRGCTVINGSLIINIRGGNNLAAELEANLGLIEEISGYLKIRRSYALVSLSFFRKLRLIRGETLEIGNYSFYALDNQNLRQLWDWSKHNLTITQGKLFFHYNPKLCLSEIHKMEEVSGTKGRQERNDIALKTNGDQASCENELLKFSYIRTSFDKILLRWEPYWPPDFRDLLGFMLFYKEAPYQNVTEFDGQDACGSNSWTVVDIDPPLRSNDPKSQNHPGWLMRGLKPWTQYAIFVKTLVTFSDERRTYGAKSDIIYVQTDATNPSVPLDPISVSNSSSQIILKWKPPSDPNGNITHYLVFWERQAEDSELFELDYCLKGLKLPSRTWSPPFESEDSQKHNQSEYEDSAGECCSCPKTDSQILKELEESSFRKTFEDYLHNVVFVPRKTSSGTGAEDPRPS
insulin receptor, sequence (P06213 763-1382 partner limits assumed, species assumed): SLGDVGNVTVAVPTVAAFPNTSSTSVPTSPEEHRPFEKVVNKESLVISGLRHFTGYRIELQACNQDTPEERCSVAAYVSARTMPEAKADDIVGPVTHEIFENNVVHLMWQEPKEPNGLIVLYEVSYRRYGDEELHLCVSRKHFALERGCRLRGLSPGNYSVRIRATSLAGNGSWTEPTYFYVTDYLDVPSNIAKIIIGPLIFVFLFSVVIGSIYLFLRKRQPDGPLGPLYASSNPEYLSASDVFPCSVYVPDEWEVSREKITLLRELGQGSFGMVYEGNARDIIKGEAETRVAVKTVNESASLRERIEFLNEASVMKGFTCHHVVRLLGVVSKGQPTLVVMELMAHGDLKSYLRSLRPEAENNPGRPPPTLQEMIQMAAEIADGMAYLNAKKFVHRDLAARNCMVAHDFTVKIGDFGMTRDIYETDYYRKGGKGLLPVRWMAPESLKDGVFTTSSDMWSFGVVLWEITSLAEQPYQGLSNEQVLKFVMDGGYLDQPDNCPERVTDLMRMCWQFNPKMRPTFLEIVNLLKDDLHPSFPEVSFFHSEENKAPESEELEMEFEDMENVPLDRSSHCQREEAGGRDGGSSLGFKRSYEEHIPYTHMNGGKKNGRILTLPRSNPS

In the case of “[LysB29-tetradecanoyl, des B30] insulin [insulin detemir]”, the “binding affinity retained relative to native insulin” value is given as 15-20%.
